Experimental data reported in ChEMBL document CHEMBL5046278, “Synthesis and Evaluation of Novel Tetrahydronaphthyridine CXCR4 Antagonists with Improved Drug-like Profiles” (J Med Chem, 2022).

What was measured:
[1] = target: Kappa-type opioid receptor (Homo sapiens, UniProt P41145); assay: Inhibition of kappa opioid receptor (unknown origin)
[2] = Permeability of compound at pH 5.5 incubated for 4 hrs by PAMPA assay; assay type: ADME; conditions: read-out: permeability
[3] = Antagonist activity at mAChR (unknown origin) expressed in CCRF-CEM cells assessed as inhibition of calcium release by calcium flux assay; assay type: cell-based; conditions: Homo sapiens
[4] = target: T1, Alpha-2C adrenergic receptor (Homo sapiens, UniProt P18825); assay: Inhibition of alpha 2C adrenergic receptor (unknown origin)
T1 sequence (P18825 whole entry): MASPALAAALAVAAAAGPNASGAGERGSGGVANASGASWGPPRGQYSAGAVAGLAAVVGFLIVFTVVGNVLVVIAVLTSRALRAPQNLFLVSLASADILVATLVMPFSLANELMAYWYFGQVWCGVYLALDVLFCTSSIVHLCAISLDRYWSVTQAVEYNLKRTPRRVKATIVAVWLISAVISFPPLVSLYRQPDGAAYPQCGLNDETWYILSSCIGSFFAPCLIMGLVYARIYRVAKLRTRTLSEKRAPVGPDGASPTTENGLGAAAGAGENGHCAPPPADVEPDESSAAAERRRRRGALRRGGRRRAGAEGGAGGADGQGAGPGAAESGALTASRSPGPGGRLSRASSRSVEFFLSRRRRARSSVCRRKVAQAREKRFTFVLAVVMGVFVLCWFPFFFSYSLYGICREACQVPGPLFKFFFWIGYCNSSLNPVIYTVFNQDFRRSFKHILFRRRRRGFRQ

[5] = target: D(2) dopamine receptor (Homo sapiens, UniProt P14416); assay: Inhibition of dopamine D2 receptor (unknown origin)
[6] = target: Neuronal acetylcholine receptor subunit alpha-7 (Homo sapiens, UniProt P36544); assay: Inhibition of alpha7 nicotinic acetylcholine receptor (unknown origin)
[7] = target: T2, Alpha-2A adrenergic receptor (Homo sapiens, UniProt P08913); assay: Inhibition of alpha 2A adrenergic receptor (unknown origin)
T2 sequence (P08913 whole entry): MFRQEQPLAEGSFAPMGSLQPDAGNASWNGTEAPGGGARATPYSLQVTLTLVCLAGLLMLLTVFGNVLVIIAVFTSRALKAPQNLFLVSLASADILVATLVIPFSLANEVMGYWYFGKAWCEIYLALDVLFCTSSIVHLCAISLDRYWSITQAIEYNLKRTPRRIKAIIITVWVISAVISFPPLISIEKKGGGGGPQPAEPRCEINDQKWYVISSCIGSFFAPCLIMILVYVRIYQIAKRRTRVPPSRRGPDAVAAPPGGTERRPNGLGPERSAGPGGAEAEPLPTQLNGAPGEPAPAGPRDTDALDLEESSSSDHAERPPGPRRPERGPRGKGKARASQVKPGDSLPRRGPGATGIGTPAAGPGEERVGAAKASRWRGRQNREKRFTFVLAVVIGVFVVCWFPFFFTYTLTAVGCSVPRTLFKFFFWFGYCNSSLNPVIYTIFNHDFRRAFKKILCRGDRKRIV

[8] = Antagonist activity at human CXCR4 receptor expressed in CCRF-CEM cells assessed as inhibition of CXCL12-induced calcium release by calcium flux assay; assay type: cell-based
[9] = target: Mu-type opioid receptor (Homo sapiens, UniProt P35372); assay: Inhibition of mu opioid receptor (unknown origin)
[10] = Metabolic stability in mouse liver microsomes assessed compound remaining measured after 10 mins in presence of NADPH; assay type: ADME, Microsome; conditions: read-out: Stability
[11] = target: Cytochrome P450 2D6 (Homo sapiens, UniProt P10635); assay: Inhibition of recombinant human CYP2D6 using AMMC as substrate preincubated for 30 mins followed by substrate addition measured after 45 mins by fluorescence based assay; assay type: ADME
[12] = Metabolic stability in rat liver microsomes assessed compound remaining measured after 10 mins in presence of NADPH; assay type: ADME, Microsome; conditions: read-out: Stability
[13] = Metabolic stability in human liver microsomes assessed compound remaining measured after 10 mins in presence of NADPH; assay type: ADME, Microsome; conditions: read-out: Stability
[14] = target: T3, Muscarinic acetylcholine receptor M2 (Homo sapiens, UniProt P08172); assay: Inhibition of M2 mAChR receptor (unknown origin)
T3 sequence (P08172 whole entry): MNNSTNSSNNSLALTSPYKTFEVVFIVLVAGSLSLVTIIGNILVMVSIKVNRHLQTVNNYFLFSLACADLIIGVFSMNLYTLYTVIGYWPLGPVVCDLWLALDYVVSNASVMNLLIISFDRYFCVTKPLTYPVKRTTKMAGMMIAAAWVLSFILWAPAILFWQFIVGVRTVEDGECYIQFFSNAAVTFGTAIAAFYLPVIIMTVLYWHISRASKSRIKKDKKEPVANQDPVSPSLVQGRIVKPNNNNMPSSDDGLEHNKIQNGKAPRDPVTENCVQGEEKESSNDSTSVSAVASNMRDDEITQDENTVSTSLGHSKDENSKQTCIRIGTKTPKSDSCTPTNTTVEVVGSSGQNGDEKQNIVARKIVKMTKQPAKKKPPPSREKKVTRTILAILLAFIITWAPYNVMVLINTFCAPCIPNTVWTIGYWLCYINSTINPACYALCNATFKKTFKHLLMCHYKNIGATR

[15] = target: Voltage-gated inwardly rectifying potassium channel KCNH2 (Homo sapiens, UniProt Q12809); assay: Inhibition of human ERG by [3H]]Astemizole binding assay; assay type: toxicity
[16] = Permeability of compound at pH 7.4 incubated for 4 hrs by PAMPA assay; assay type: ADME; conditions: read-out: permeability
[17] = system: Human immunodeficiency virus 1; assay: Antiviral activity against HIV-1 NL4-3(X4) pseudovirus infected in human TZM-bl cells assessed as reduction in viral infectivity measured after 48 hrs of postinfection by luminescence assay; assay type: functional, organism-based; conditions: Human immunodeficiency virus 1, NL4-3(X4)
[18] = system: Human immunodeficiency virus 1; assay: Antiviral activity against HIV-1 Z1800M E4.02 (R5) pseudovirus infected in human TZM-blcells assessed as reduction in viral infectivity measured after 48 hrs of postinfection by luminescence assay; assay type: functional, organism-based; conditions: Human immunodeficiency virus 1, Z1800M E4.02 (R5), TZM-bl
[19] = Cytotoxicity against human TZM-bl cells assessed as reduction in cell viability incubated for 4 hrs by […] assay; assay type: toxicity, cell-based; conditions: read-out: TC50

Sequence of Kappa-type opioid receptor (P41145 whole entry): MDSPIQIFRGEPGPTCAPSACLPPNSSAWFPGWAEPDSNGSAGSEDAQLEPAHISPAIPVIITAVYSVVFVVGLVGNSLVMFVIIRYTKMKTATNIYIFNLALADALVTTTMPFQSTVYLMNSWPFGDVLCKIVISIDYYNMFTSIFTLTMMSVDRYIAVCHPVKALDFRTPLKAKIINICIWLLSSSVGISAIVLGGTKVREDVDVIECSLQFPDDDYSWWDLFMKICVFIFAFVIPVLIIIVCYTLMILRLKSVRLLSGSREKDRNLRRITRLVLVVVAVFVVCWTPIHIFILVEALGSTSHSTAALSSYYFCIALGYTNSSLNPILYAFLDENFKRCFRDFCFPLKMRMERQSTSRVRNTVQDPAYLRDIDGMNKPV
Sequence of Mu-type opioid receptor (P35372 whole entry): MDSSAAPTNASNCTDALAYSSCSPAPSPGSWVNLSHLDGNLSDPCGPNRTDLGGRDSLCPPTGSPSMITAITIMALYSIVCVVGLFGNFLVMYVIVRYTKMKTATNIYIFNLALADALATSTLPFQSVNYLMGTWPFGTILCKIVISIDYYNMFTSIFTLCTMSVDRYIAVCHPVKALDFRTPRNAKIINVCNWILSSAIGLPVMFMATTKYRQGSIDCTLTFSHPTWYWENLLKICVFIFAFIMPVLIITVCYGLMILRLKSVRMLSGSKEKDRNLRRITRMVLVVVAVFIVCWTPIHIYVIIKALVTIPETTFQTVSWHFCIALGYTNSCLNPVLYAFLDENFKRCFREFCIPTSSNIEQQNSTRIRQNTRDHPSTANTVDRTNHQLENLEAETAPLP
Sequence of Neuronal acetylcholine receptor subunit alpha-7 (P36544 whole entry): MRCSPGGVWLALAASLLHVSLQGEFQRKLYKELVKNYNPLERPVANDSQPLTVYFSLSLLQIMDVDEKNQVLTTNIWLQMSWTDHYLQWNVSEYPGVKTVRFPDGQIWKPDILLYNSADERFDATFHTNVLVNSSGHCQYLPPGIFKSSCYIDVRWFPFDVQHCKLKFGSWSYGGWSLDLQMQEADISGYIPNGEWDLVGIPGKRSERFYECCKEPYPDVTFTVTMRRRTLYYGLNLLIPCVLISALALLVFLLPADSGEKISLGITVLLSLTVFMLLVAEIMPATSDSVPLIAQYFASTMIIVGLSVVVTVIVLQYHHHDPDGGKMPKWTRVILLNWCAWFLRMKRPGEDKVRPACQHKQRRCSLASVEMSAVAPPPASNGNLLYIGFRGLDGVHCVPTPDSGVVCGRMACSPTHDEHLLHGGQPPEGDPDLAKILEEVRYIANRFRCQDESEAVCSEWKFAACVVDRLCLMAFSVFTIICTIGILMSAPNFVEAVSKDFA
Sequence of D(2) dopamine receptor (P14416 whole entry): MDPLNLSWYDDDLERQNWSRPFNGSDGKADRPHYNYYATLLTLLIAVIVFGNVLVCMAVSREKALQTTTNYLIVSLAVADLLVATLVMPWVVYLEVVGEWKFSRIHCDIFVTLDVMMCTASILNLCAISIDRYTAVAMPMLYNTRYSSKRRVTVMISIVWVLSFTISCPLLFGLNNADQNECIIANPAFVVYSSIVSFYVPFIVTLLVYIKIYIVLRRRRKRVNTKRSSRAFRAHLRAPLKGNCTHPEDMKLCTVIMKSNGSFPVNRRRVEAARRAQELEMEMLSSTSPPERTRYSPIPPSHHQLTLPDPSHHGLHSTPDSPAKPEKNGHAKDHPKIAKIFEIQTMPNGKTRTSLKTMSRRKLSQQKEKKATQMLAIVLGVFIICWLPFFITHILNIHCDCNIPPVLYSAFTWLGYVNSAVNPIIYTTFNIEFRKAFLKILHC
Sequence of Cytochrome P450 2D6 (P10635 whole entry): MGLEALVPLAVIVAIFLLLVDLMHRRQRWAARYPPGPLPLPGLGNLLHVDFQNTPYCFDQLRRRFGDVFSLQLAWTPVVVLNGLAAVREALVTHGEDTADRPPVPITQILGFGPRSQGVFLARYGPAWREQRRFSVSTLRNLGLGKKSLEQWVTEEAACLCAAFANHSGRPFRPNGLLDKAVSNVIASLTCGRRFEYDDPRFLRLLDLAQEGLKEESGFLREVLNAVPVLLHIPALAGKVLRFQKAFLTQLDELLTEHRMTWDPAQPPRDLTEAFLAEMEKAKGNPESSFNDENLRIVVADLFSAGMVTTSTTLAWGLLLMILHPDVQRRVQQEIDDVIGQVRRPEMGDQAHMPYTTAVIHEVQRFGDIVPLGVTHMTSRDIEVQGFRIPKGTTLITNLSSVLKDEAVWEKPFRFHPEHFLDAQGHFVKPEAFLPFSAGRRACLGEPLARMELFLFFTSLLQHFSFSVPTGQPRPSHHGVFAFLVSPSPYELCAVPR
Sequence of Voltage-gated inwardly rectifying potassium channel KCNH2 (Q12809 whole entry): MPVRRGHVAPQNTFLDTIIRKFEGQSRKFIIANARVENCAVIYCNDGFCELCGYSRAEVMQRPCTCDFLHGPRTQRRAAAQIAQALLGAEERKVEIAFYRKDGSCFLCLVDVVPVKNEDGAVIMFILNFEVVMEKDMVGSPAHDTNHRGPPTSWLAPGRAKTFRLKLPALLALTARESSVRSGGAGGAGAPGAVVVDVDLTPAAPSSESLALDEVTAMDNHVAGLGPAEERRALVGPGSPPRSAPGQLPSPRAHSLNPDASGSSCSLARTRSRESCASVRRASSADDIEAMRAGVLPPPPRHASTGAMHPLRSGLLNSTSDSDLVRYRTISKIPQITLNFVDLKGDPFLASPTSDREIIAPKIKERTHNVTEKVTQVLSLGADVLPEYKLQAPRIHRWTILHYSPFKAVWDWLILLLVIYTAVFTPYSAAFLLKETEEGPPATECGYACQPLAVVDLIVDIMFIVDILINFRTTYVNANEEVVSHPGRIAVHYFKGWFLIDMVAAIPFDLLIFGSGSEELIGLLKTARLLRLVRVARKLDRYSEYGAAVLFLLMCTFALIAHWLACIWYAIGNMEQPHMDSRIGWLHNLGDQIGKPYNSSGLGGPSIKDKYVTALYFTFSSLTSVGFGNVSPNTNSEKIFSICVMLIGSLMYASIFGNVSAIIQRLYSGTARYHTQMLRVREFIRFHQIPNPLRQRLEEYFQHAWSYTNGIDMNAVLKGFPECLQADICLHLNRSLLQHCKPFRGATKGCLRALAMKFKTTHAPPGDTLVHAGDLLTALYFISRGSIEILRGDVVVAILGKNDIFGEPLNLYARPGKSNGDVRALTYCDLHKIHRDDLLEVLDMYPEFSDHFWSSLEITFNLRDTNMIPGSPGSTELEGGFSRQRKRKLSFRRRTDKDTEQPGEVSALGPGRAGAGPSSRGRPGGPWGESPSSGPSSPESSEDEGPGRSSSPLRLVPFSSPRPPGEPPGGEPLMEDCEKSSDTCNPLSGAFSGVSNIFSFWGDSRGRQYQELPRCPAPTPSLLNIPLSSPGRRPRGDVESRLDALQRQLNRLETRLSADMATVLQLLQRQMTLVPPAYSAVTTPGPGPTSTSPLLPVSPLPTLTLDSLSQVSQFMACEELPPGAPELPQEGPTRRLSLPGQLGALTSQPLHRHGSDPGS

Row | SMILES | IC50 [1] [µM] | Papp at 4 h [2] [×10⁻⁶ cm/s] | IC50 [3] [µM] | IC50 [4] [µM] | IC50 [5] [µM] | IC50 [6] [µM] | IC50 [7] [µM] | IC50 [8] [µM] | IC50 [9] [µM] | remaining at 10 min [10] [%] | IC50 [11] [µM] | remaining at 10 min [12] [%] | remaining at 10 min [13] [%] | IC50 [14] [µM] | IC50 [15] [µM] | Papp at 4 h [16] [×10⁻⁶ cm/s] | IC50 [17] [µM] | IC50 [18] [µM] | CC50 at 4 h [19] [µM]
1 | NCCCCN(C[C@H]1Cc2ccccc2CN1)[C@H]1CCCc2cccnc21 | 1.6 | 0.6 | < 30 | 23 | 5.7 | > 30 |  |  |  |  |  |  |  |  |  |  |  |  | 
2 | NCCCCN(C[C@H]1Cc2ncccc2CN1)[C@H]1CCCc2cccnc21 | 1.1 | 1.7 |  | 13 | 9.4 | 1.7 | 11 | 0.011 | > 30 | 86 | 12 | 64 | 100 | 8.7 | 5.8 | 1.4 |  |  | 
3 | c1cnc2c(c1)CN[C@@H](CN(CCCCNC1CCOCC1)[C@H]1CCCc3cccnc31)C2 | 4.3 | 0.2 | > 17 | > 30 | > 30 | > 30 | > 30 | 0.0072 | 20 | 35 | > 20 | 49 | 97 | > 30 | > 50 | 0.8 |  |  | 
4 | c1cnc2c(c1)CN[C@@H](CN(CCCCN(C1COC1)C1COC1)[C@H]1CCCc3cccnc31)C2 |  | 6.2 | > 33 |  |  |  |  | 3 |  | 33 | > 20 | 72 | 62 |  |  | 32 |  |  | 
5 | c1cnc2c(c1)CN[C@@H](CN(CCCC1CCNCC1)[C@H]1CCCc3cccnc31)C2 | 4.8 | 1.4 | > 33 | 2.2 | 9.8 | 17 |  | 0.035 | > 30 | 69 | > 20 | 40 | 100 | > 30 | 9.3 | 2.4 |  |  | 
6 | NCCCCN(C[C@H]1Cc2cccnc2CN1)[C@H]1CCCc2cccnc21 | 4 | 0.2 |  | 30 | 10 |  | 1.3 | 0.012 | > 30 | 69 | 4 | 49 | 96 | 30 | 5.4 | 0.6 |  |  | 
7 | NC(=O)NCCCCN(C[C@H]1Cc2ncccc2CN1)[C@H]1CCCc2cccnc21 |  | 0.7 | > 17 |  |  |  |  | 0.93 |  | 32 | 13 | 1 | 91 |  |  | 0.2 |  |  | 
8 | c1cnc2c(c1)CN[C@@H](CN(CCCCN1CCOCC1)[C@H]1CCCc3cccnc31)C2 | > 30 | 1.2 | > 33 | 20 | > 30 | 11 | 0.62 | 0.27 | > 30 | 20 | > 20 | 39 | 100 | > 30 | 11 | 83 | > 0.03 | > 10 | > 10
9 | NCc1ccc(CN(C[C@H]2Cc3ncccc3CN2)[C@H]2CCCc3cccnc32)cc1 |  | 2 | 26 |  |  |  |  | 0.11 |  | 53 | 2.7 | 78 | 100 |  |  | 6.9 |  |  | 
10 | NCCCCN(C[C@H]1Cc2nccnc2CN1)[C@H]1CCCc2cccnc21 |  | 0.2 | < 33 |  |  |  |  | 0.042 |  | 77 | > 20 | 50 | 84 |  |  | 0.2 |  |  | 
11 | NC/C=C/CN(C[C@H]1Cc2ncccc2CN1)[C@H]1CCCc2cccnc21 |  | 0.2 | 28 |  |  |  |  | 0.15 |  | 37 | 0.7 | 11 | 85 |  |  | 1.5 |  |  | 
12 | NC(=O)NC/C=C\CN(C[C@H]1Cc2ncccc2CN1)[C@H]1CCCc2cccnc21 |  | 0.5 | > 17 |  |  |  |  | 0.46 |  | 10 | 20 | 1 | 100 |  |  | 0.2 |  |  | 
